Values joined by “and” are separate entries in the source; they are usually repeats but may differ in a detail not shown here. Identical values can stand only once. Toxic doses and inconclusive results are not listed.
Test system: L1210 leukemia ip in BDF1 mice, survival T/C
Assay: NCI In Vivo Anticancer Drug Screen. Data for tumor model L1210 Leukemia (intraperitoneal) in B6D2F1 (BDF1) mice
Details: endpoint: mean survival time, higher = longer survival
Summary of the method: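 Read-out is survival time, reported as the treated-group measurement over the vehicle-control measurement.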

[1] = dose: 100.0 mg/kg/injection, schedule: Q01DX009 (ip), vehicle: saline with Tween-80
[2] = dose: 200.0 mg/kg/injection, schedule: Q01DX009 (ip), vehicle: saline with Tween-80
[3] = dose: 25.0 mg/kg/injection, schedule: Q01DX009 (ip), vehicle: saline
[4] = dose: 50.0 mg/kg/injection, schedule: Q01DX009 (ip), vehicle: saline
[5] = dose: 100.0 mg/kg/injection, schedule: Q01DX001 (ip), vehicle: saline
[6] = dose: 200.0 mg/kg/injection, schedule: Q01DX001 (ip), vehicle: saline
[7] = dose: 400.0 mg/kg/injection, schedule: Q01DX009 (ip), vehicle: saline with Tween-80
[8] = dose: 400.0 mg/kg/injection, schedule: Q01DX001 (ip), vehicle: saline
[9] = dose: 100.0 mg/kg/injection, schedule: Q01DX009 (ip), vehicle: Klucel (hydroxypropylcellulose) (HPC)
[10] = dose: 200.0 mg/kg/injection, schedule: Q01DX009 (ip), vehicle: Klucel (hydroxypropylcellulose) (HPC)
[11] = dose: 100.0 mg/kg/injection, schedule: Q04DX002 (ip), vehicle: saline with Tween-80
[12] = dose: 200.0 mg/kg/injection, schedule: Q04DX002 (ip), vehicle: saline with Tween-80
[13] = dose: 400.0 mg/kg/injection, schedule: Q04DX002 (ip), vehicle: saline with Tween-80
[14] = dose: 100.0 mg/kg/injection, schedule: Q04DX003 (ip), vehicle: Klucel (hydroxypropylcellulose) (HPC)
[15] = dose: 200.0 mg/kg/injection, schedule: Q04DX003 (ip), vehicle: Klucel (hydroxypropylcellulose) (HPC)
[16] = dose: 400.0 mg/kg/injection, schedule: Q04DX003 (ip), vehicle: Klucel (hydroxypropylcellulose) (HPC)
[17] = dose: 100.0 mg/kg/injection, schedule: Q01DX009 (ip), vehicle: saline
[18] = dose: 200.0 mg/kg/injection, schedule: Q01DX009 (ip), vehicle: saline
[19] = dose: 400.0 mg/kg/injection, schedule: Q01DX009 (ip), vehicle: saline
[20] = dose: 50.0 mg/kg/injection, schedule: Q01DX009 (ip), vehicle: Klucel (hydroxypropylcellulose) (HPC)
[21] = dose: 75.0 mg/kg/injection, schedule: Q01DX001 (ip), vehicle: carboxymethylcellulose (CMC)
[22] = dose: 150.0 mg/kg/injection, schedule: Q01DX001 (ip), vehicle: carboxymethylcellulose (CMC)
[23] = dose: 100.0 mg/kg/injection, schedule: Q04DX003 (ip), vehicle: saline with Tween-80
[24] = dose: 200.0 mg/kg/injection, schedule: Q04DX003 (ip), vehicle: saline with Tween-80
[25] = dose: 400.0 mg/kg/injection, schedule: Q04DX003 (ip), vehicle: saline with Tween-80
[26] = dose: 100.0 mg/kg/injection, schedule: Q04DX003 (ip), vehicle: saline
[27] = dose: 200.0 mg/kg/injection, schedule: Q04DX003 (ip), vehicle: saline
[28] = dose: 400.0 mg/kg/injection, schedule: Q04DX003 (ip), vehicle: saline
[29] = dose: 25.0 mg/kg/injection, schedule: Q01DX001 (ip), vehicle: saline

## Nc1ccc(Cl)cc1N
dose: 90.0 mg/kg/injection, schedule: Q01DX001 (ip), vehicle: other
  T/C: 100 % of control
dose: 90.0 mg/kg/injection, schedule: Q04DX003 (ip), vehicle: other
  T/C: 97 % of control
[1]
  T/C: 104 % of control
dose: 100.0 mg/kg/injection, schedule: Q04DX002 (ip), vehicle: other
  T/C: 107 % of control
dose: 175.0 mg/kg/injection, schedule: Q01DX001 (ip), vehicle: other
  T/C: 105 % of control
dose: 175.0 mg/kg/injection, schedule: Q01DX009 (ip), vehicle: other
  T/C: 111 % of control
dose: 175.0 mg/kg/injection, schedule: Q04DX003 (ip), vehicle: other
  T/C: 100 % of control
[2]
  T/C: 114 % of control
dose: 200.0 mg/kg/injection, schedule: Q04DX002 (ip), vehicle: other
  T/C: 107 % of control
dose: 265.0 mg/kg/injection, schedule: Q01DX001 (ip), vehicle: other
  T/C: 99 % of control
dose: 265.0 mg/kg/injection, schedule: Q01DX009 (ip), vehicle: other
  T/C: 151 % of control
dose: 265.0 mg/kg/injection, schedule: Q04DX003 (ip), vehicle: other
  T/C: 106 % of control
dose: 400.0 mg/kg/injection, schedule: Q01DX001 (ip), vehicle: other
  T/C: 110 % of control
dose: 400.0 mg/kg/injection, schedule: Q04DX002 (ip), vehicle: other
  T/C: 114 % of control
dose: 400.0 mg/kg/injection, schedule: Q04DX003 (ip), vehicle: other
  T/C: 104 % of control

## CNC(C)c1ccc(C)cc1 (configuration not stated)
dose: 6.25 mg/kg/injection, schedule: Q01DX009 (ip), vehicle: saline
  T/C: 123 % of control
dose: 12.5 mg/kg/injection, schedule: Q01DX009 (ip), vehicle: saline
  T/C: 95 % of control
[3]
  T/C: 100 % of control

## CNNC(=O)Cc1ccc(OC)cc1
[4]
  T/C: 100 % of control
[5]
  T/C: 100 % of control
[6]
  T/C: 113 % of control

## c1ccc(CCc2ccncc2)cc1
[1]
  T/C: 87 % of control
[2]
  T/C: 88 % of control
[7]
  T/C: 86 % of control

## O=[N+]([O-])c1ccc(S(=O)(=O)F)c(Cl)c1
[5]
  T/C: 98 % of control
[6]
  T/C: 90 % of control
[8]
  T/C: 96 % of control

## CCOc1ccc(NC(=O)c2c(Br)c(Br)c(Br)c(Br)c2C(=O)O)cc1
[9]
  T/C: 102 % of control
[10]
  T/C: 87 % of control

## Cc1cccc(NC(=S)/C(=C(/[O-])c2ccccc2)[n+]2ccc3ccccc3c2)c1
[11]
  T/C: 98 % of control
[12]
  T/C: 98 % of control
[13]
  T/C: 91 % of control

## CC(=O)Oc1cc2c(cc1[N+](=O)[O-])OCO2
dose: 100.0 mg/kg/injection, schedule: Q01DX001 (ip), vehicle: Klucel (hydroxypropylcellulose) (HPC)
  T/C: 104 % of control
[14]
  T/C: 94 % of control
dose: 200.0 mg/kg/injection, schedule: Q01DX001 (ip), vehicle: Klucel (hydroxypropylcellulose) (HPC)
  T/C: 94 % of control
[15]
  T/C: 93 % of control
dose: 400.0 mg/kg/injection, schedule: Q01DX001 (ip), vehicle: Klucel (hydroxypropylcellulose) (HPC)
  T/C: 98 % of control
[16]
  T/C: 105 % of control

## CCCCCC(O)CCCCC
[17]
  T/C: 102 % of control
[18]
  T/C: 107 % of control
[19]
  T/C: 113 % of control

## CCCCNC(=O)c1c(Cl)c(Cl)c(Cl)c(Cl)c1C(=O)O
[11]
  T/C: 97 % of control
[12]
  T/C: 90 % of control

## CSc1nc2ccc(S(=O)(=O)O)cc2s1
[20]
  T/C: 104 % of control
[9]
  T/C: 96 % of control
[10]
  T/C: 97 % of control

## CCOC(=O)CCCS
[21]
  T/C: 93 % of control
[22]
  T/C: 93 % of control

## Nc1ccc(S(=O)(=O)c2ccc(NCCc3ccccn3)cc2)cc1
[23]
  T/C: 97 % of control
[24]
  T/C: 105 % of control
[25]
  T/C: 100 % of control

## O=[As](O)(CC(O)c1ccccc1)c1ccc(Cl)cc1 (configuration not stated)
dose: 6.25 mg/kg/injection, schedule: Q01DX001 (ip), vehicle: saline with Tween-80
  T/C: 100 % of control
dose: 12.5 mg/kg/injection, schedule: Q01DX001 (ip), vehicle: saline with Tween-80
  T/C: 109 % of control
dose: 25.0 mg/kg/injection, schedule: Q01DX001 (ip), vehicle: saline with Tween-80
  T/C: 105 % of control and 116 % of control

## O=C1CCCO1
[26]
  T/C: 92 % of control
[27]
  T/C: 100 % of control
[28]
  T/C: 94 % of control

## CCC(c1ccc(OC)cc1)C(CC)c1ccc(OCCN2CCCC2)cc1 (configuration not stated)
dose: 12.5 mg/kg/injection, schedule: Q01DX001 (ip), vehicle: saline
  T/C: 94 % of control
[29]
  T/C: 94 % of control
dose: 50.0 mg/kg/injection, schedule: Q01DX001 (ip), vehicle: saline
  T/C: 95 % of control
[5]
  T/C: 97 % of control

## Fc1c(F)c(F)c(Oc2nc(Oc3c(F)c(F)c(F)c(F)c3F)nc(-c3ccccc3)n2)c(F)c1F
dose: 25.6 mg/kg/injection, schedule: Q04DX002 (ip), vehicle: saline with Tween-80
  T/C: 91 % of control
dose: 64.0 mg/kg/injection, schedule: Q04DX002 (ip), vehicle: saline with Tween-80
  T/C: 102 % of control
[23]
  T/C: 92 % of control
dose: 160.0 mg/kg/injection, schedule: Q04DX002 (ip), vehicle: saline with Tween-80
  T/C: 94 % of control
[24]
  T/C: 92 % of control
[13]
  T/C: 105 % of control
[25]
  T/C: 87 % of control

## c1cnc2ccc3c(c2c1)COCO3
[5]
  T/C: 93 % of control

## CC1CN(c2ccc([N+](=O)[O-])cc2)C(C)CN1N=O (configuration not stated)
[3]
  T/C: 106 % of control
[4]
  T/C: 104 % of control
[17]
  T/C: 98 % of control
[18]
  T/C: 97 % of control
[19]
  T/C: 95 % of control

## Cc1ccnc(NC(=O)Nc2ccccc2F)c1
[5]
  T/C: 97 % of control and 106 % of control
[1]
  T/C: 92 % of control
[26]
  T/C: 95 % of control
[6]
  T/C: 101 % of control
[2]
  T/C: 96 % of control
[27]
  T/C: 101 % of control
[8]
  T/C: 97 % of control and 88 % of control
[7]
  T/C: 91 % of control
[28]
  T/C: 101 % of control

## CC(OC(=O)Oc1ccccc1)c1ccccc1 (configuration not stated)
[14]
  T/C: 98 % of control
[15]
  T/C: 107 % of control
[16]
  T/C: 98 % of control

## CC(C)CCCC(C)CCCl (configuration not stated)
[11]
  T/C: 93 % of control
[12]
  T/C: 86 % of control
[13]
  T/C: 107 % of control

## CCC(CC)NC(CC)CO (configuration not stated)
[21]
  T/C: 101 % of control
[22]
  T/C: 100 % of control

## CC1(C)N=C(N)N=C(N)N1c1cccc(CCCCCc2ccccc2)c1
[29]
  T/C: 94 % of control

## S=C(S)Nc1cccc2ccccc12
dose: 12.5 mg/kg/injection, schedule: Q01DX009 (ip), vehicle: Klucel (hydroxypropylcellulose) (HPC)
  T/C: 103 % of control
dose: 12.5 mg/kg/injection, schedule: Q04DX003 (ip), vehicle: Klucel (hydroxypropylcellulose) (HPC)
  T/C: 100 % of control
dose: 25.0 mg/kg/injection, schedule: Q01DX009 (ip), vehicle: Klucel (hydroxypropylcellulose) (HPC)
  T/C: 98 % of control
dose: 25.0 mg/kg/injection, schedule: Q04DX003 (ip), vehicle: Klucel (hydroxypropylcellulose) (HPC)
  T/C: 94 % of control
[20]
  T/C: 92 % of control
dose: 50.0 mg/kg/injection, schedule: Q04DX003 (ip), vehicle: Klucel (hydroxypropylcellulose) (HPC)
  T/C: 100 % of control
[9]
  T/C: 94 % of control
[1]
  T/C: 89 % of control
[14]
  T/C: 98 % of control
[23]
  T/C: 93 % of control and 86 % of control
[10]
  T/C: 94 % of control
[2]
  T/C: 88 % of control
[15]
  T/C: 96 % of control
[24]
  T/C: 95 % of control and 86 % of control
dose: 400.0 mg/kg/injection, schedule: Q01DX009 (ip), vehicle: Klucel (hydroxypropylcellulose) (HPC)
  T/C: 99 % of control
[7]
  T/C: 104 % of control
[16]
  T/C: 91 % of control
[25]
  T/C: 101 % of control and 86 % of control

## CN(C)CCCNC(=O)Nc1ccccc1
[9]
  T/C: 100 % of control
[14]
  T/C: 120 % of control
[10]
  T/C: 98 % of control
[15]
  T/C: 93 % of control

## COc1ccc(C)cc1NN
[3]
  T/C: 101 % of control
[4]
  T/C: 97 % of control
[26]
  T/C: 96 % of control

Source: PubChem BioAssay AID248 (DTP/NCI, 2004)
